Where two headings read alike, the source gives them in different places.
System: DENV-2 RL
Test: microbe, parasite or virus in culture
Assay type: cell-based
Settings: Dengue virus, DENV2, Vero

Measured: EC50

COc1cc(N[C@H](C(=O)c2c[nH]c3ccc(OC(F)(F)F)cc23)c2ccc(Cl)cc2OC)cc(S(C)(=O)=O)c1 [JNJ-1802]
100 ng/mL: read-out: EC50 values [Well 1], A sample, passage 32 | read-out: EC50 values [Well 2], A sample, passage 27 | read-out: EC50 values [Well 2], A sample, passage 28 | read-out: EC50 values [Well 2], A sample, passage 29 | read-out: EC50 values [Well 2], A sample, passage 30 | read-out: EC50 values [Well 2], A sample, passage 33 | read-out: EC50 values [Well 2], A sample, passage 34 | read-out: EC50 values [Well 2], A sample, passage 35 | read-out: EC50 values [Well 2], A sample, passage 36
0.049 ng/mL: read-out: EC50 values [Well 1], B sample, passage 1 | read-out: EC50 values [Well 1], B sample, passage 2 | read-out: EC50 values [Well 1], B sample, passage 3 | read-out: EC50 values [Well 1], B sample, passage 4 | read-out: EC50 values [Well 1], B sample, passage 5 | read-out: EC50 values [Well 2], A sample, passage 6 | read-out: EC50 values [Well 2], A sample, passage 9 | read-out: EC50 values [Well 2], B sample, passage 6 | read-out: EC50 values [Well 2], B sample, passage 7 | read-out: EC50 values [Well 2], B sample, passage 8 | read-out: EC50 values [Well 2], B sample, passage 9 | read-out: EC50 values [Well 2], B sample, passage 10 | read-out: EC50 values [Well 2], B sample, passage 14 | read-out: EC50 values [Well 2], B sample, passage 15
31.3 ng/mL: read-out: EC50 values [Well 1], B sample, passage 31 | read-out: EC50 values [Well 1], B sample, passage 32 | read-out: EC50 values [Well 2], B sample, passage 33 | read-out: EC50 values [Well 2], B sample, passage 34 | read-out: EC50 values [Well 2], B sample, passage 35 | read-out: EC50 values [Well 2], B sample, passage 36 | read-out: EC50 values [Well 2], B sample, passage 37 | read-out: EC50 values [Well 2], B sample, passage 38
250 ng/mL: read-out: EC50 values [Well 1], B sample, passage 40 | read-out: EC50 values [Well 2], B sample, passage 41 | read-out: EC50 values [Well 2], B sample, passage 42 | read-out: EC50 values [Well 2], B sample, passage 43 | read-out: EC50 values [Well 2], B sample, passage 44 | read-out: EC50 values [Well 2], B sample, passage 45 | read-out: EC50 values [Well 2], B sample, passage 46 | read-out: EC50 values [Well 2], B sample, passage 47
200 ng/mL: read-out: EC50 values [Well 1], A sample, passage 33 | read-out: EC50 values [Well 1], A sample, passage 34 | read-out: EC50 values [Well 1], A sample, passage 35 | read-out: EC50 values [Well 1], A sample, passage 36 | read-out: EC50 values [Well 2], A sample, passage 37 | read-out: EC50 values [Well 2], A sample, passage 38
62.5 ng/mL: read-out: EC50 values [Well 1], B sample, passage 33 | read-out: EC50 values [Well 1], B sample, passage 34 | read-out: EC50 values [Well 1], B sample, passage 35 | read-out: EC50 values [Well 1], B sample, passage 36 | read-out: EC50 values [Well 1], B sample, passage 37 | read-out: EC50 values [Well 1], B sample, passage 38 | read-out: EC50 values [Well 2], B sample, passage 39
50 ng/mL: read-out: EC50 values [Well 2], A sample, passage 26 | read-out: EC50 values [Well 2], A sample, passage 31 | read-out: EC50 values [Well 2], A sample, passage 32
6.25 ng/mL: read-out: EC50 values [Well 1], B sample, passage 26 | read-out: EC50 values [Well 1], B sample, passage 27 | read-out: EC50 values [Well 1], B sample, passage 28
500 ng/mL: read-out: EC50 values [Well 1], B sample, passage 41 | read-out: EC50 values [Well 1], B sample, passage 42 | read-out: EC50 values [Well 1], B sample, passage 43 | read-out: EC50 values [Well 1], B sample, passage 44 | read-out: EC50 values [Well 1], B sample, passage 45 | read-out: EC50 values [Well 1], B sample, passage 46 | read-out: EC50 values [Well 1], B sample, passage 47 | read-out: EC50 values [Well 2], A sample, passage 39 | read-out: EC50 values [Well 2], A sample, passage 40 | read-out: EC50 values [Well 2], A sample, passage 41 | read-out: EC50 values [Well 2], A sample, passage 42 (END) | read-out: EC50 values [Well 2], B sample, passage 48 | read-out: EC50 values [Well 2], B sample, passage 49 | read-out: EC50 values [Well 2], B sample, passage 50 (END)
0.391 ng/mL: read-out: EC50 values [Well 1], B sample, passage 13 | read-out: EC50 values [Well 1], B sample, passage 19 | read-out: EC50 values [Well 1], B sample, passage 20 | read-out: EC50 values [Well 1], B sample, passage 21 | read-out: EC50 values [Well 1], B sample, passage 22 | read-out: EC50 values [Well 2], A sample, passage 14 | read-out: EC50 values [Well 2], A sample, passage 15 | read-out: EC50 values [Well 2], B sample, passage 23
0.024 ng/mL: read-out: EC50 values [Well 2], A sample, passage 1 | read-out: EC50 values [Well 2], A sample, passage 2 | read-out: EC50 values [Well 2], A sample, passage 3 | read-out: EC50 values [Well 2], A sample, passage 4 | read-out: EC50 values [Well 2], A sample, passage 5 | read-out: EC50 values [Well 2], A sample, passage 7 | read-out: EC50 values [Well 2], A sample, passage 8 | read-out: EC50 values [Well 2], B sample, passage 1 | read-out: EC50 values [Well 2], B sample, passage 2 | read-out: EC50 values [Well 2], B sample, passage 3 | read-out: EC50 values [Well 2], B sample, passage 4 | read-out: EC50 values [Well 2], B sample, passage 5
12.5 ng/mL: read-out: EC50 values [Well 2], A sample, passage 20 | read-out: EC50 values [Well 2], A sample, passage 21 | read-out: EC50 values [Well 2], A sample, passage 22 | read-out: EC50 values [Well 2], A sample, passage 23 | read-out: EC50 values [Well 2], B sample, passage 29
1.56 ng/mL: read-out: EC50 values [Well 1], B sample, passage 24 | read-out: EC50 values [Well 2], A sample, passage 17 | read-out: EC50 values [Well 2], B sample, passage 25
0.195 ng/mL: read-out: EC50 values [Well 1], B sample, passage 11 | read-out: EC50 values [Well 1], B sample, passage 12 | read-out: EC50 values [Well 1], B sample, passage 16 | read-out: EC50 values [Well 1], B sample, passage 17 | read-out: EC50 values [Well 1], B sample, passage 18 | read-out: EC50 values [Well 2], A sample, passage 13 | read-out: EC50 values [Well 2], B sample, passage 13 | read-out: EC50 values [Well 2], B sample, passage 19 | read-out: EC50 values [Well 2], B sample, passage 20 | read-out: EC50 values [Well 2], B sample, passage 21 | read-out: EC50 values [Well 2], B sample, passage 22
1000 ng/mL: read-out: EC50 values [Well 1], A sample, passage 39 | read-out: EC50 values [Well 1], A sample, passage 40 | read-out: EC50 values [Well 1], A sample, passage 41 | read-out: EC50 values [Well 1], A sample, passage 42 (END) | read-out: EC50 values [Well 1], B sample, passage 48 | read-out: EC50 values [Well 1], B sample, passage 49 | read-out: EC50 values [Well 1], B sample, passage 50 (END)
15.6 ng/mL: read-out: EC50 values [Well 2], B sample, passage 31 | read-out: EC50 values [Well 2], B sample, passage 32
3.13 ng/mL: read-out: EC50 values [Well 1], B sample, passage 25 | read-out: EC50 values [Well 2], A sample, passage 18 | read-out: EC50 values [Well 2], B sample, passage 26 | read-out: EC50 values [Well 2], B sample, passage 27 | read-out: EC50 values [Well 2], B sample, passage 28
125 ng/mL: read-out: EC50 values [Well 1], B sample, passage 39 | read-out: EC50 values [Well 2], B sample, passage 40
400 ng/mL: read-out: EC50 values [Well 1], A sample, passage 37 | read-out: EC50 values [Well 1], A sample, passage 38
25 ng/mL: read-out: EC50 values [Well 1], B sample, passage 29 | read-out: EC50 values [Well 1], B sample, passage 30 | read-out: EC50 values [Well 2], A sample, passage 24 | read-out: EC50 values [Well 2], A sample, passage 25

— publication PMC10033419, “Blocking NS3–NS4B interaction inhibits dengue virus in non-human primates” (Nature, 2023)
